According to PubChem BioAssay (NCI):
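Five compound concentrations were applied to cells in 96-well plates for 48 hours; endpoints were derived by simple linear interpolation of the resulting dose-response curve. The concentration for full growth arrest is given as TGI.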

Legend:
Experiment in all cases: growth of human tumour cells (NCI), 48 h
RXF 393 renal = tested on: RXF 393 renal
HCT-15 colon = tested on: HCT-15 colon
NCI-H460 lung = tested on: NCI-H460 lung
A549 NSCLC = tested on: A549 NSCLC
LOX IMVI melanoma = tested on: LOX IMVI melanoma
TK-10 renal = tested on: TK-10 renal
HT29 colon = tested on: HT29 colon
NCI-H23 lung = tested on: NCI-H23 lung
HOP-92 NSCLC = tested on: HOP-92 NSCLC
SK-MEL-2 melanoma = tested on: SK-MEL-2 melanoma
IGROV1 ovarian = tested on: IGROV1 ovarian
HCC-2998 colon = tested on: HCC-2998 colon
MALME-3M melanoma = tested on: MALME-3M melanoma
CAKI-1 renal = tested on: CAKI-1 renal
MDA-MB-435 = tested on: MDA-MB-435
MOLT-4 leukemia = tested on: MOLT-4 leukemia
CCRF-CEM leukemia = tested on: CCRF-CEM leukemia
SW-620 colon = tested on: SW-620 colon
ACHN renal = tested on: ACHN renal
UO-31 renal = tested on: UO-31 renal
HCT-116 colon = tested on: HCT-116 colon
DU-145 prostate = tested on: DU-145 prostate
HS 578T breast = tested on: HS 578T breast
U251 CNS = tested on: U251 CNS
SNB-19 CNS = tested on: SNB-19 CNS
OVCAR-3 ovarian = tested on: OVCAR-3 ovarian
MDA-N = tested on: MDA-N
COLO 205 colon = tested on: COLO 205 colon
A498 renal = tested on: A498 renal
T-47D breast = tested on: T-47D breast
MDA-MB-231 breast = tested on: MDA-MB-231 breast
SK-MEL-28 melanoma = tested on: SK-MEL-28 melanoma
M14 melanoma = tested on: M14 melanoma
OVCAR-5 ovarian = tested on: OVCAR-5 ovarian
NCI-H226 lung = tested on: NCI-H226 lung
OVCAR-4 ovarian = tested on: OVCAR-4 ovarian
RPMI-8226 leukemia = tested on: RPMI-8226 leukemia
EKVX NSCLC = tested on: EKVX NSCLC
NCI-H522 lung = tested on: NCI-H522 lung
SF-268 CNS = tested on: SF-268 CNS
MCF7 breast = tested on: MCF7 breast
SN12C renal = tested on: SN12C renal
SF-295 CNS = tested on: SF-295 CNS
HL-60(TB) leukemia = tested on: HL-60(TB) leukemia
SF-539 CNS = tested on: SF-539 CNS
SK-MEL-5 melanoma = tested on: SK-MEL-5 melanoma
SK-OV-3 ovarian = tested on: SK-OV-3 ovarian
786-0 renal = tested on: 786-0 renal
OVCAR-8 ovarian = tested on: OVCAR-8 ovarian
BT-549 breast = tested on: BT-549 breast
HOP-62 NSCLC = tested on: HOP-62 NSCLC
UACC-257 melanoma = tested on: UACC-257 melanoma
KM12 colon = tested on: KM12 colon
PC-3 prostate = tested on: PC-3 prostate
K-562 leukemia = tested on: K-562 leukemia
SR leukemia = tested on: SR leukemia

Measured: TGI

C=CCNC(=O)N1CC(C)C(=O)Nc2ccccc21 (stereo unspecified)
> 100 µM: all assays above
